According to publication PMC10033663, “Acute pharmacological profile of 2C-B-Fly-NBOMe in male Wistar rats—pharmacokinetics, effects on behaviour and thermoregulation” (Frontiers in Pharmacology, 2023):
Where two headings read alike, the source gives them in different places.

Assay: Pharmacokinetics of 2C-B-Fly-NBOMe in blood serum and brain tissue (LC/MS)
Format: in vivo, male Wistar rats
Settings: for k el: read-out: ke (h^-1) elimination rate constant (converted)
Procedure: For the pharmacokinetic study, rats were treated with 1 mg/kg s. c. of 2C-B-Fly-NBOMe and then sacrificed by decapitation after 0.5, 1, 2, 4, 8 and 24 h (n = 8 per time point). Collected blood was left to clot in a refrigerator for 1 h, then centrifuged for 10 min at 1500 g, 10°C, and the separated serum was collected. Whole brains were excised manually using surgical instruments. All serum and brain samples were stored at −20°C until the analysis.
200 μl of blood serum was diluted in a microtube with 200 μl of 1% ammonia solution and homogenized in a Bullet Blender tissue homogenizer (speed 2, time 5 min). Next, 400 μl of ethyl acetate was added by the automatic dispenser and the whole content was homogenized again (speed 3, time 5 min), additional 400 μl of ethyl acetate was added and the sample was homogenized for the last time. The homogenate was centrifuged (10 min, 25°C, 12,000 RPM), 600 μl of the top layer was transferred into a new microtube and 50 μl of 10% formic acid solution was added. After proper shaking, the solution was evaporated in the CentriVap concentrator. The residue was then dissolved in 100 μl of methanol and shaken for 10 min. Prior to the analysis, the solution was diluted 1:1 in deionized water, mixed and centrifuged.
100 µL of 1% ammonium hydroxide solution was added to 200 mg of brain tissue. A mixture was homogenized with 200 mg of zirconium oxide beads in a BulletBlender for 10 min (speed 5). 400 μL of ethyl acetate was added to the mixture and homogenized (BulletBlender, speed 3, time 5 min). Additional 400 µL of ethyl acetate was added to the mixture and homogenized (BulletBlender, speed 3, time 5 min). Samples were centrifuged (10 min, 25°C, 12,000 RPM), 400 µL of supernatant was acidified and completely evaporated (Centrivap Concentrator). The dry residue was reconstituted with 400 µL of methanol. Prior to the analysis, 250 µL of the solution was diluted with 750 µL of water, mixed, and centrifuged (0.2 µm PVDF filter).
The samples were analysed using ultra-high performance liquid chromatography-tandem mass spectrometry instrumentation (1,290 Infinity—6,460 Triple Quadrupole LC/MS Agilent Technologies with AJS electrospray ionization source). A column Kinetex Biphenyl (100 × 2.1 mm, 2.6 µm) with a pre-column was used for a chromatographic separation at 35°C with gradient elution in a system of 5 mM ammonium formate with 0.01% (v/v) formic acid (mobile phase A) and methanol with 0.01% (v/v) formic acid (mobile phase B). The gradient started at 10% B, increased from 10% to 50% B in 0.5 min and from 50% to 100% B in 1.5 min, held for 2 min at 100% B, decreased to 10% B in 0.5 min and held for 2 min at 10% B. Data were acquired in positive electrospray ionization (ESI) mode using a multiple reaction monitoring method, one quantification ion and three confirmation ions were used. 2C-B-Fly-NBOMe was quantified using an external matrix-matched calibration. The limit of quantification was 1 ng/ml (1 ng/g for brain tissue). The matrix-matched calibration was performed in duplicates; real samples were also processed in duplicates.
For the pharmacokinetic data, a one-compartment model with a first-order absorption equation ([Wijnand, 1988]) was fitted using a cubic spline interpolation: Ct=D·ka·F/V/ka−ke×expke·t−exp(−ka·t Where C = 2C-B-Fly-NBOMe concentration, t = time, D = dose, ka = absorption rate constant, F = bioavailability, V = volume of distribution, ke = elimination rate constant.
The half-life of the drug elimination was calculated using Package PKNCA version 0.9.4 implemented in R software ([Buckeridge et al., 2015]).

[1] = brain, 1 mg/kg s. c., mean ± SEM
[2] = male, Wistar, rat, sc, brain, 1 mg/kg s. c., mean ± SEM
[3] = male, Wistar, rat, sc, serum, 1 mg/kg s. c., mean ± SEM
[4] = serum, 1 mg/kg s. c., mean ± SEM

COc1ccccc1CNCCc1c2c(c(Br)c3c1OCC3)OCC2 [2C-B-Fly-NBOMe]
Maximum mean concentration (blood serum, 1 mg/kg s. c.): 28 ng/mL
Time of maximum mean concentration (blood serum, 1 mg/kg s. c.): ≤ 0.5 h
Time of peak drug concentration (brain tissue, 1 mg/kg s. c.): 60 min
passage through the blood-brain barrier (brain versus serum concentration, 1 mg/kg s. c.): readily passes through the blood-brain barrier
AUC0-24 h [1]: 826.3 ± 112.6 ng·h/g
ka (h^-1) absorption rate constant [1]: 0.685 ± 0.034 h⁻¹
Tmax (male, Wistar, rat, sc, brain, 1 mg/kg s. c.): 1.1 h
half-life (male, Wistar, rat, sc, brain, 1 mg/kg s. c., Table 1, read-out: t1/2 (converted)): 3.2 h
Cmax [2]: 159 ± 15.3 ng/g
k el [2]: 0.655 h⁻¹
Tmax (male, Wistar, rat, sc, serum, 1 mg/kg s. c.): 0.8 h
half-life (male, Wistar, rat, sc, serum, 1 mg/kg s. c., Table 1, read-out: t1/2 (converted)): 2.55 h
Cmax [3]: 28.4 ± 6.33 ng/mL
bioavailability (male, Wistar, rat, sc, serum, 1 mg/kg s. c., mean ± SEM, one-compartment model, read-out: F (%) bioavailability): 96.1 ± 4.8%
AUC(0-t) (male, Wistar, rat, sc, serum, 1 mg/kg s. c., mean ± SEM, read-out: AUC0-24 h): 115 ± 25.6 ng·h/mL
k el [3]: 0.733 h⁻¹
half-life (male, Wistar, rat, subcutaneous, blood serum, 1 mg/kg s. c., read-out: half-life of elimination (converted)): 1.56 h
half-life (male, Wistar, rat, subcutaneous, brain, 1 mg/kg s. c., read-out: half-life of elimination (converted)): 2.4 h
concentration at 8 h (male, Wistar, rat, subcutaneous, brain, 8 h after 1 mg/kg s. c.): 21 ng/g
Time of peak drug concentration (serum, 1 mg/kg s. c.): 30 min
V d (mL) volume of distribution [4]: 7.231 ± 0.362 mL
ka (h^-1) absorption rate constant [4]: 0.731 ± 0.036 h⁻¹
presence in serum after 8 h (serum, 8 h after 1 mg/kg s. c.): almost undetectable
